The supplement of paper PMC10307832

Key:
Experiment in all cases: relative viability (nuclei count vs DMSO), 5 days (fraction); higher = more cells survive
[1] = system: EPLC-272H
Outline: (§1)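 Nuclei were stained with Hoechst during a one-step fixation (final 0.05% Triton X-100, 1% formaldehyde, 1 ug/ml Hoechst) carried out 5 days after dosing, then counted on 4× images. The cells, lung cancer lines in 1536-well plates, had been dosed by pin tool the day after seeding with one drug alone or a fixed anchor-drug dose plus five library-drug doses (not always all listed) in √10 steps. Relative viability is the nuclei count in treated wells divided by that in vehicle wells, and each value is the median of duplicate plates.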

[2] = system: NCI-H2405
Outline: as §1

[3] = system: NCI-H2009
Outline: as §1

[4] = system: HCC-44
Outline: as §1

[5] = system: NCI-H3122
Outline: as §1

[6] = system: NCI-H2228
Outline: as §1

[7] = system: NCI-H2085
Outline: as §1

[8] = system: NCI-H2347
Outline: as §1

[9] = system: LCLC-103H
Outline: as §1

[10] = system: PC-14
Outline: as §1

[11] = system: HCC-827
Outline: as §1

[12] = system: COR-L23
Outline: as §1

[13] = system: SW 1573
Outline: as §1

[14] = system: NCI-H1355
Outline: as §1

[15] = system: NCI-H1734
Outline: as §1

[16] = system: NCI-H2023
Outline: as §1

[17] = system: HCC-15
Outline: as §1

[18] = system: ChaGo-K-1
Outline: as §1

[19] = system: HCC-366
Outline: as §1

[20] = system: ABC-1
Outline: as §1

Cc1csc(=NC2CCCCC2)n1/N=C/c1ccc(O)c(O)c1O [MIM1] + CC(C)C[C@H](NC(=O)[C@H](Cc1ccccc1)NC(=O)c1cnccn1)B(O)O [Bortezomib] (partner 0.002 µM)
relative viability ([1]; first compound 0.2 µM): 0.805
relative viability ([1]; first compound 0.6325 µM): 0.796
relative viability ([1]; first compound 2 µM): 0.588
relative viability ([1]; first compound 6.325 µM): 0.732
relative viability ([1]; first compound 20 µM): 0.483
relative viability ([2]; first compound 0.2 µM): 0.959
relative viability ([2]; first compound 0.6325 µM): 1.01
relative viability ([2]; first compound 2 µM): 0.961
relative viability ([2]; first compound 6.325 µM): 0.788
relative viability ([2]; first compound 20 µM): 0.358
relative viability ([3]; first compound 0.2 µM): 1.01
relative viability ([3]; first compound 0.6325 µM): 0.956
relative viability ([3]; first compound 2 µM): 1.02
relative viability ([3]; first compound 6.325 µM): 0.529
relative viability ([3]; first compound 20 µM): 0.106
relative viability ([4]; first compound 0.2 µM): 0.879
relative viability ([4]; first compound 0.6325 µM): 0.816
relative viability ([4]; first compound 2 µM): 0.84
relative viability ([4]; first compound 6.325 µM): 0.446
relative viability ([4]; first compound 20 µM): 0.141
relative viability ([5]; first compound 0.2 µM): 1
relative viability ([5]; first compound 0.6325 µM): 1.06
relative viability ([5]; first compound 2 µM): 0.999
relative viability ([5]; first compound 6.325 µM): 0.986
relative viability ([5]; first compound 20 µM): 0.235
relative viability ([6]; first compound 0.2 µM): 1.02
relative viability ([6]; first compound 0.6325 µM): 1.09
relative viability ([6]; first compound 2 µM): 1.09
relative viability ([6]; first compound 6.325 µM): 0.414
relative viability ([6]; first compound 20 µM): 0.246
relative viability ([7]; first compound 0.2 µM): 1.08
relative viability ([7]; first compound 0.6325 µM): 0.994
relative viability ([7]; first compound 2 µM): 0.986
relative viability ([7]; first compound 6.325 µM): 0.952
relative viability ([7]; first compound 20 µM): 0.989
relative viability ([8]; first compound 0.2 µM): 0.944
relative viability ([8]; first compound 0.6325 µM): 1.03
relative viability ([8]; first compound 2 µM): 0.939
relative viability ([8]; first compound 6.325 µM): 0.798
relative viability ([8]; first compound 20 µM): 0.578
relative viability ([9]; first compound 0.2 µM): 0.974
relative viability ([9]; first compound 0.6325 µM): 0.959
relative viability ([9]; first compound 2 µM): 1.05
relative viability ([9]; first compound 6.325 µM): 0.955
relative viability ([9]; first compound 20 µM): 0.938
relative viability ([10]; first compound 0.2 µM): 0.751
relative viability ([10]; first compound 0.6325 µM): 0.882
relative viability ([10]; first compound 2 µM): 0.779
relative viability ([10]; first compound 6.325 µM): 0.692
relative viability ([10]; first compound 20 µM): 0.192
relative viability ([11]; first compound 0.2 µM): 1.09
relative viability ([11]; first compound 0.6325 µM): 0.9
relative viability ([11]; first compound 2 µM): 1.07
relative viability ([11]; first compound 6.325 µM): 0.402
relative viability ([11]; first compound 20 µM): 0.465
relative viability ([12]; first compound 0.2 µM): 1.02
relative viability ([12]; first compound 0.6325 µM): 1.04
relative viability ([12]; first compound 2 µM): 0.969
relative viability ([12]; first compound 6.325 µM): 0.659
relative viability ([12]; first compound 20 µM): 0.418
relative viability ([13]; first compound 0.2 µM): 0.937
relative viability ([13]; first compound 0.6325 µM): 1.05
relative viability ([13]; first compound 2 µM): 0.978
relative viability ([13]; first compound 6.325 µM): 0.811
relative viability ([13]; first compound 20 µM): 0.592
relative viability ([14]; first compound 0.2 µM): 1.26
relative viability ([14]; first compound 0.6325 µM): 0.978
relative viability ([14]; first compound 2 µM): 1.22
relative viability ([14]; first compound 6.325 µM): 0.871
relative viability ([14]; first compound 20 µM): 0.916
relative viability ([15]; first compound 0.2 µM): 1.12
relative viability ([15]; first compound 0.6325 µM): 0.799
relative viability ([15]; first compound 2 µM): 0.868
relative viability ([15]; first compound 6.325 µM): 0.404
relative viability ([15]; first compound 20 µM): 0.159
relative viability ([16]; first compound 0.2 µM): 1.11
relative viability ([16]; first compound 0.6325 µM): 0.916
relative viability ([16]; first compound 2 µM): 0.765
relative viability ([16]; first compound 6.325 µM): 0.35
relative viability ([16]; first compound 20 µM): 0.0682
relative viability ([17]; first compound 0.2 µM): 1.05
relative viability ([17]; first compound 0.6325 µM): 0.911
relative viability ([17]; first compound 2 µM): 1.06
relative viability ([17]; first compound 6.325 µM): 0.36
relative viability ([17]; first compound 20 µM): 0.267
relative viability ([18]; first compound 0.2 µM): 1.03
relative viability ([18]; first compound 0.6325 µM): 0.972
relative viability ([18]; first compound 2 µM): 1.06
relative viability ([18]; first compound 6.325 µM): 0.729
relative viability ([18]; first compound 20 µM): 0.29
relative viability ([19]; first compound 0.2 µM): 1.02
relative viability ([19]; first compound 0.6325 µM): 0.994
relative viability ([19]; first compound 2 µM): 0.793
relative viability ([19]; first compound 6.325 µM): 0.998
relative viability ([19]; first compound 20 µM): 0.0323
relative viability ([20]; first compound 0.2 µM): 0.33
relative viability ([20]; first compound 0.6325 µM): 0.299
relative viability ([20]; first compound 2 µM): 0.298
relative viability ([20]; first compound 6.325 µM): 0.309
relative viability ([20]; first compound 20 µM): 0.231
